Data set [1] has as its system IL-1β, human peripheral blood mononuclear cells (PBMC). Nature of the data set: PBMC cell assay: IL-1β assay with human PBMC or enriched adherent mononuclear cells, LPS-stimulated. The data set is classed as cell-based. Conditions: * = values obtained upon reassay. The method in brief: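 Buffy-coat human PBMC at 6×10^6 cells/ml, or adherent monocytes enriched by 1 h adherence (2.5−3.0×10^5 cells/well), are given 5–6 compound dilutions bracketing the ICE Ki (final DMSO 0.1%) plus LPS at a final 5 ng/ml. They are incubated 16–18 hr at 37 °C, 5% CO2, and supernatant mature IL-1β is measured by ELISA, with duplicate cultures and duplicate ELISAs.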

Data set [2] deals with IL-1β production, LPS-challenged mice. In words: In vivo acute assay for efficacy as anti-inflammatory agent: LPS-induced IL-1β production in mice. Further details: species or system mouse. The note with it: for inhibition at 50 mg/kg: po, read-out: percent inhibition of IL-1β production; for inhibition at 50 mg/kg / percent inhibition of IL-1β production: compound PO. In a few lines:
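CD1 mice (n=6) were challenged with LPS 20 mg/kg IP and given compound IP in olive oil:DMSO:ethanol (90:5:5) 1 h after LPS, or at the time of challenge for some analogs. Blood was taken 7 h after LPS and serum IL-1β was measured by ELISA. Oral gavage at 50 mg/kg was also tested.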

A short description of data set [3]: Pharmacokinetic studies in the mouse (i.v. clearance, plasma levels). The format is in vivo. Conditions: 25 mg/kg; for clearance: CD-1, plasma. In a few lines: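 Male CD-1 mice (26-31 g) given 25 mg/kg i.v. via tail vein in 0.02M Tris (2.5 mg/ml), groups of 5 per timepoint from 2 to 120 min. Heparinized plasma deproteinated (perchloric acid or acetonitrile) and analysed by reverse-phase HPLC with UV or MS detection against plasma-spiked calibration (0.5 to 50 μg/ml).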

The mark [4] stands for this setting: Mus musculus, 0 h, LPS challenged mice, 50 mg/kg, administered 0 h relative to time of LPS challenge.
Setting [5] is: Mus musculus, 2 h, LPS challenged mice, 50 mg/kg, administered −2 h relative to time of LPS challenge.
Where [6] appears, read: LPS challenged mice, PO, 50 mg/kg, * = values obtained in subsequent assays (Table 4).

Where “and” joins values, the source holds several entries; their conditions need not be identical. Identical values can stand only once. Entries after “also recorded” stand apart in the source; their conditions may differ. Like-named read-outs stand apart in the source and are kept apart here.

For orientation: IC50 means the midpoint of a concentration-inhibition curve. Low readings indicate higher potency, high ones lower potency. Broadly, the inhibition is the drop in the measured response relative to a control, in per cent. By clearance is commonly meant the volume of plasma or blood freed of the substance per unit of time. Read a high clearance as efficient removal. For orientation: ED50 means the midpoint of the dose-response relation.

As to `O=C[C@H](CC(=O)O)NC(=O)[C@@H]1CCCN2C(=O)CC[C@H](NC(=O)c3cc4ccccc4[nH]3)C(=O)N12` [Compound 475, [3S(1S,9S)]3-[6,10-Dioxo-9-(indol-2-oylamino)-1,2,3,4,7,8,9,10-octahydro-6H-pyridazino[1,2-a][1,2]diazepine-1-carboxamido]-4-oxobutanoic acid], the IC50 in data set [1] worked out at 0.65 µM; in data set [1] (Homo sapiens, PBMC), 0.69 µM. Besides, the results for the inhibition at 50 mg/kg in data set [2] (setting [4]) and in data set [2] (setting [5]) were 15% and 0%, respectively. Besides, in data set [3] (iv, mouse), the clearance was found to be 31 mL/min/kg.
For `O=C[C@H](CC(=O)O)NC(=O)[C@@H]1CCCN2C(=O)CC[C@H](NC(=O)c3ccccc3)C(=O)N12` [Compound 214e, [3S(1S,9S)]3-(9-Benzoylamino-6,10-dioxo-1,2,3,4,7,8,9,10-octahydro-6H-pyridazino[1,2-a][1,2]-diazepine-1-carboxamido)-4-oxobutanoic acid], the IC50 in data set [1] (Homo sapiens, PBMC) stood at 1.6 µM. Besides, the “IP % Inhibition” value in data set [2] (% inhibition of IL-β production, LPS-challenged mice, IP, 50 mg/kg (Table 3)) is 78%. Further, in data set [2] (% inhibition of IL-β production, LPS-challenged mice, PO, 50 mg/kg (Table 3)), the “POS Inhibition” value amounted to 75%. In data set [2] (setting [6]), the “Inhibition of IL-1β Production, compound administered 0 hr relative to LPS challenge” value was 48* % and 80* %; the “Inhibition of IL-1β Production, compound administered −1 hr relative to LPS challenge” value was 44* %; the “Inhibition of IL-1β Production, compound administered −2 hr relative to LPS challenge” value is 43* % and 39* %. In addition, the “percent inhibition of IL-1β production” value in data set [2] (LPS challenged mice, 50 mg/kg, administered 0 h relative to time of LPS challenge) was 70% and 48%. Further, in data set [2] (LPS challenged mice, 50 mg/kg, administered −2 h relative to time of LPS challenge), the “percent inhibition of IL-1β production” value is on record as 43%. In addition, the “inhibition of IL-1β secretion/production after IP administration” value in data set [2] (LPS-challenged CD1 mice, IP injection one hour after LPS, result in words) is listed as “dose dependent inhibition; also recorded: inhibit IL-1β production”. Moreover, the “inhibition of IL-1β secretion/production after oral (PO) administration” value in data set [2] (LPS-challenged mice, oral gavage, 50 mg/kg, result in words) was “inhibited IL-1β secretion; also recorded: inhibit IL-1β production”. The inhibition at 50 mg/kg in data set [2] (Mus musculus, 1 h, LPS challenged mice, 50 mg/kg, administered −1 h relative to time of LPS challenge) came to 44%. Also, the inhibition at 50 mg/kg in data set [2] (setting [5]) amounted to 39%. Moreover, the ED50 in data set [2] (Mus musculus, CD1 mice, LPS 20 mg/kg IP, compound IP one hour after LPS, blood seven hours after LPS, read-out: ED50, inhibition of IL-1β secretion) is around 15 mg/kg. The compound further registered a clearance in data set [3] (iv, mouse) of 23 mL/min/kg. Further, the “mean plasma level at 90 and 120 minutes” value in data set [3] (male CD-1 mice, i.v. tail vein) was below 2 µg/mL. In addition, in data set [3] (mouse, plasma, iv, male CD-1 mice, i.v. tail vein, read-out: mean plasma level at 2 minutes), the concentration at 2 min was determined as 70 µg/mL.
`Cc1ccccc1C(=O)N[C@H]1CCC(=O)N2CCC[C@@H](C(=O)N[C@H](C=O)CC(=O)O)N2C1=O` [Compound 404]: the IC50 in data set [1] turned out to be 1.8 µM; in data set [1] (Homo sapiens, PBMC), 1.65 µM. The inhibition at 50 mg/kg in data set [2] (setting [4]) stood at 6%; in data set [2] (Mus musculus, 1 h, LPS challenged mice, 50 mg/kg, administered +1 h relative to time of LPS challenge), 56%; in data set [2] (setting [5]), 55%. This compound yielded a clearance in data set [3] (iv, mouse) of 64 mL/min/kg.
`CC(=O)Nc1cccc(C(=O)N[C@H]2CCC(=O)N3CCC[C@@H](C(=O)N[C@H](C=O)CC(=O)O)N3C2=O)c1` [Compound 450, [3S(1S,9S)]3-{9-[(3-Acetamido)benzamido]-6,10-dioxo-1,2,3,4,7,8,9,10-octahydro-6H-pyridazino[1,2-a][1,2]diazepine-1-carboxamido}-4-oxobutanoic acid] registered an IC50 in data set [1] (Homo sapiens, PBMC) of 0.8 µM. In addition, the results for the inhibition at 50 mg/kg in data set [2] (setting [4]) and in data set [2] (setting [5]) were 35% and 0%, respectively. This compound returned a clearance in data set [3] (iv, mouse) of 18 mL/min/kg.
